Patent publication US12415830B2, “Steroid compound, and use thereof and preparation method therefor” (Chengdu Kanghong Pharmaceutical Co Ltd, priority 2019, dated 2025)

What was measured:
mice = test: Observation of side effects (gait, mobility, prone behavior) during administration in the elevated plus maze experiment; type: in vivo; parameters: key to Gait, Level / mobility, Level / prone behavior, Level: “+” indicates severity; ++: “+” indicates severity; +++: three “+” are the most severe, with time to resume normal action >60 minutes; conditions: for Gait, Number / mobility, Number / prone behavior, Number: 10 mice per group; for side effects compared to the positive drug: 3 mg/kg, mice
Protocol: Since the drugs which are acting on GABA (A) receptor can produce behavioral anesthesia (side effects), side effects of mice during administration were observed during the course of the elevated plus maze experiment. […] “+” indicates severity, three “+” are the most severe, with time to resume normal action >60 minutes.

GABAA1 (α1β2γ2) receptor = biological target: T1, GABAA1 (α1β2γ2) receptor (Homo sapiens, UniProt P14867+P47870); test: Patch-clamp electrophysiology on recombinant GABAA1 receptor in HEK293 cells, with 3 μM GABA; type: cell-based; conditions: for Emax at 0.1 µM / Emax at 1 µM / Emax: HEK293; for Emax at 0.1 µM: 0.1 μM compound together with 3 μmol GABA; for Emax at 0.1 µM / Emax at 1 µM: read-out: potency: ratio of the peak current on the GABAA1 receptor to the peak current in 100 μmol GABA; for Emax at 1 µM: 1 μM compound together with 3 μmol GABA; for Emax / EC50: together with 3 μmol GABA; for Emax: relative to peak current in 100 μmol GABA
T1 construct: expressed in transfected cells
T1 sequence (P14867 28-456): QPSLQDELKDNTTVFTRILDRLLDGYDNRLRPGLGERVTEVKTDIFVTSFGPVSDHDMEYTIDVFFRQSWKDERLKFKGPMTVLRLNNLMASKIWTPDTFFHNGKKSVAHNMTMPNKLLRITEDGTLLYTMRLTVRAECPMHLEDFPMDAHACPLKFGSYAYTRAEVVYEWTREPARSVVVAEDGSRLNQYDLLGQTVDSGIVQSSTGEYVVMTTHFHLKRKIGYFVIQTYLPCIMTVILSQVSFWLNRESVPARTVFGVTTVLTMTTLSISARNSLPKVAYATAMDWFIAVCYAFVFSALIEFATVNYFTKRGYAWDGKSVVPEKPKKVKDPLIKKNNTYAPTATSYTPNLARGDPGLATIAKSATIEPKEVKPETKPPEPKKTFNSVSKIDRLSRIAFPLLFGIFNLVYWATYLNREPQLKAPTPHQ
T1 sequence (P47870 26-512): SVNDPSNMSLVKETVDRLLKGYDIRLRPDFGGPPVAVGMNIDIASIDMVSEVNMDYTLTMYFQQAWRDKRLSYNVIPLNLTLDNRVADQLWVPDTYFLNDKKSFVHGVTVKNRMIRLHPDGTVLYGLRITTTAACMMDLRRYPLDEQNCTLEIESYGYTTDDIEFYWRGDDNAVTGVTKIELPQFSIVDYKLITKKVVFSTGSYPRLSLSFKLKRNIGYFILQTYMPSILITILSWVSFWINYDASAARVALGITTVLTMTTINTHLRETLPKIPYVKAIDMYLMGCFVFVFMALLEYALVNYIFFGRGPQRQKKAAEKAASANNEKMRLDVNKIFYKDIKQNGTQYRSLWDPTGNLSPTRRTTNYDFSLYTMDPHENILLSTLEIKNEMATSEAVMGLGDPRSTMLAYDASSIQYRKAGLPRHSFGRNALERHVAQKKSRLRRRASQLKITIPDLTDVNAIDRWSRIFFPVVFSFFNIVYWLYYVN
T1 sequence (P18507 40-475 partner): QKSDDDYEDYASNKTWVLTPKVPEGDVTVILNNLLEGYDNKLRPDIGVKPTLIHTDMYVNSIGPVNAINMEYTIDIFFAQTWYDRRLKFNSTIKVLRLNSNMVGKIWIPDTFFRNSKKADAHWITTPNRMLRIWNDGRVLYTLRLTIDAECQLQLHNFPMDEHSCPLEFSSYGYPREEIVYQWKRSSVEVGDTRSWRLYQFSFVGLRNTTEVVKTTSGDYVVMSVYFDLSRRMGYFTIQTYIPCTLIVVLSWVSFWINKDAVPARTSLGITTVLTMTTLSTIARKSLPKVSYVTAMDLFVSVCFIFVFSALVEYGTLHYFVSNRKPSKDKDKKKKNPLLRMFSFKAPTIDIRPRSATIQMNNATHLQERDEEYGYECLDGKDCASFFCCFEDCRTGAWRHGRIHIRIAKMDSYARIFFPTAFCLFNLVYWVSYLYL
Protocol: The present invention applies the two subunits of the recombinant GABAA receptor: α1β2γ2 and α4β3δ to evaluate the potency of the exemplary compounds in vitro by patch-clamp electrophysiology.
Extracellular fluid: 140 mM NaCl, 5 mM CsCl, 2 mM CaCl2·2H2O, 1 mM MgCl2·6H2O, 5 mM HEPES, 10 mM D-Glucose, pH=7.4 (NaOH).
Intracellular fluid: 130 mM CsCl, 0.1 mM CaCl2·H2O, 2 mM MgCl2·6H2O, 1.1 mM EGTA, 5 mM Na2-ATP, 10 mM HEPES, pH=7.2 (CsOH).
The HEK293 cells line stably expressing GABAA (α1β2γ2) receptors was cultured in Dulbecco's Modified Eagle Medium (DMEM) supplemented with 10% fetal bovine serum, 800 μg/mL G418, 200 μg/mL Hygromycin B and 100 μg/mL Zeocin. Cells were grown in a humidified incubator at 37° C. with 5% carbon dioxide.
Before manual patch clamp test, the cells were detached using 0.25%-Trypsin-EDTA solution. Then 8×10^3 cells were plated onto coverslips, and cultured in a 24-well plate (final medium volume: 500 μL) and tested after 18 hours by patch clamp.
Glass pipette (BF 150-86-10, Sutter Instruments) was pulled using a micropipette puller (P97, Sutter Instruments). The glass pipette was manipulated using a micro-manipulator (MP285, Sutter Instruments) under the microscope (IX71, Olympus). After touching the cell, a slight suction was applied to achieve high seal resistance (GQ). Fast capacitance (in pF) compensation was made after achieving high seal, and the membrane was broken. Cell capacitance (in pF) compensation was made from whole-cell capacitance compensation after the whole cell mode was achieved. No leak subtraction was made.
The test and control solutions flowed into a recording chamber mounted on the stage of an inverted microscope via a gravity-fed solution delivery system. During the experiment, solutions were withdrawn from the recording chamber by vacuum aspiration. Each concentration was tested at multiple times. All tests were performed at room temperature.
Whole cell model recorded GABAA1 receptors current experimental protocol was indicated as follows: When sealing, cell was at a holding potential of −70 mV, with gap-free mode to record the peak current. The cell would be applied with 3 μM GABA to active current. After the test articles application for 30 s, each concentration of test articles was applied with 3 μM GABA followed by 2 minutes washout using extracellular solution. Finally, 100 μM GABA was used as a positive control. The data were collected by EPC-10 amplifier and stored in PatchMaster (HEKA) software.
The following criteria are used to determine whether the data is acceptable: • (1) Electrode resistance <5MΩ • (2) Seal resistance >1GΩ • (3) The start of access resistance <15 MΩ • (4) The end of access resistance <15 MΩ • (5) No obvious spontaneous current decay. • (6) No obvious current leakage when the membrane potential is-70 mv. 56.6 Data Analysis
In the detection of GABAA1, the currents of 3 μM GABA and different concentrations of test compounds were respectively normalized to the current of 100 μM GABA
[formula] and then the activation rate corresponding to each concentration was calculated.
[formula] and then the activation rate corresponding to each concentration was calculated. Means, Standard Deviation and Standard Error were calculated for each test group. EC50 value was calculated using nonlinear regression: Y=Bottom+(Top−Bottom)/(1+10^((Log EC50−X)×HillSlope))
To fit data to the concentration-response, EC50 was the concentration giving a half-maximum effect and Hillslope was the Hill coefficient. Curve-fitting and EC50 calculations were performed using Graphpad5.0 software.
Emax is defined as the ratio of the peak current generated on the GABAA1 receptor to the peak current generated only in 100 μmol of GABA and the ratio is multiplied by 100%. The peak current generated on the GABAA1 receptor is that the exemplary compounds act on the GABAA1 receptor together with 3 μmol GABA.

SMILES	Gait, Level (mice; 3mg/kg, the first day)	mobility, Level (mice; 3mg/kg, the first day)	Gait, Number (mice; 3mg/kg, the first day)	mobility, Number (mice; 3mg/kg, the first day)	prone behavior, Number (mice; 3mg/kg, the first day)	Gait, Level (mice; 3mg/kg, the forth day)	mobility, Level (mice; 3mg/kg, the forth day)	Gait, Number (mice; 3mg/kg, the forth day)	mobility, Number (mice; 3mg/kg, the forth day)	prone behavior, Number (mice; 3mg/kg, the forth day)	Gait, Number (mice; 3mg/kg, the second day)	mobility, Number (mice; 3mg/kg, the second day)	prone behavior, Number (mice; 3mg/kg, the second day)	Gait, Level (mice; 3mg/kg, the third day)	Gait, Number (mice; 3mg/kg, the third day)	mobility, Number (mice; 3mg/kg, the third day)	prone behavior, Number (mice; 3mg/kg, the third day)	Emax at 0.1 µM (GABAA1 (α1β2γ2) receptor) [%]	Emax at 1 µM (GABAA1 (α1β2γ2) receptor) [%]	Emax (GABAA1 (α1β2γ2) receptor) [%]	further results
C[C@@]1(O)CC[C@H]2[C@H](CC[C@@H]3[C@@H]2CC[C@]2(C)[C@@H](C(=O)Cn4cc(C#N)cn4)CC[C@@H]32)C1 [The control, reference compound]	++	+++ (three “+” are the most severe, with time to resume normal action >60 minutes)	7	3	2	+	+	9	5	0	6	0	0	+	8	4	0	0 to 20	20 to 40	84.2	prone behavior, Level (mice; 3mg/kg, the first day): +; Gait, Level (mice; 3mg/kg, the second day): ++; mobility, Level (mice; 3mg/kg, the third day): ++
C[C@@]1(O)CC[C@@]2(C)[C@@H](CC[C@@H]3[C@@H]2CC[C@]2(C)[C@@H](C(=O)Cn4ncnn4)CCC[C@@H]32)C1 [KH022]	+	++	3	1	0	+	+	3	1	0	2	0	0	+	1	0	0	0 to 20	40 to 60	93.1	side effects compared to the positive drug (mice): less side effects; Gait, Level (mice; 3mg/kg, the second day): +; EC50 (GABAA1 (α1β2γ2) receptor): 821 nM
C[C@]12CC[C@@H](O)C[C@@H]1CC[C@@H]1[C@@H]2CC[C@]2(C)[C@@H](C(=O)Cn3ncnn3)CCC[C@@H]12 [KH004]	–	–	0	0	0	–	–	0	0	0	0	0	0	+	1	0	0	20 to 40	> 80	106	side effects compared to the positive drug (mice): less side effects; EC50 (GABAA1 (α1β2γ2) receptor): 404 nM
